Columns and labels:
TAF1-BD1 = TAF1-BD1 (Homo sapiens, UniProt P21675); test: TAF1-BD1 TR-FRET Binding Assay; settings: read-out: TAF1-BD1 HTRF IC50
Protocol: IC50 Measurements for Inhibitors Using TAF1-BD1 TR-FRET Binding Assay
His/Flag epitope tagged TAF1-BD11381-1497 was cloned, expressed, and purified to homogeneity. TAF1-BD binding and inhibition was assessed by monitoring the engagement of a biotinylated small molecule compound 1000 with the target using the TR-FRET assay technology (Perkin-Elmer). Specifically, in a 384 well ProxiPlate, TAF1-BDI (0.08 uM final) in 50 mM HEPES (pH 7.5; final), 50 mM NaCl (final), 1 mM TCEP (final), 0.1 mg/mL BSA (final), and 0.069 mM Brij-35 (final) was added either in the presence of DMSO (final 0.2% DMSO) or compound dilution series in DMSO. After a 10 minute incubation at room temperature, biotin-ligand (0.08 uM final) was added. After 10 minutes incubation at room temperature, a mixture Eu-W1024 Anti-6×His antibody (Perkin Elmer ADO 110) and SureLight™ Streptavidin-Allophycocyanin (SA-APC, Perkin Elmer CR130-100) were added to final concentrations of 0.2 nM antibody and 0.05 uM SA-APC, respectively. After forty minutes of equilibration at room temperature, the plates were read on an Envision instrument and IC50s calculated using a four parameter logistic model (XLFIT).

TAF1-BD2 = TAF1-BD2 (Homo sapiens, UniProt P21675); test: TAF1-BD2 TR-FRET Binding Assay; settings: read-out: TAF1-BD2 HTRF IC50
Protocol: IC50 Measurements for Inhibitors Using TAF1-BD2 TR-FRET Binding Assay
His/Flag epitope tagged TAF1-BD21504-1635 was cloned, expressed, and purified to homogeneity. TAF1-BD2 binding and inhibition was assessed by monitoring the engagement of a biotinylated small molecule compound 1000 with the target using the TR-FRET assay technology (Perkin-Elmer). Specifically, in a 384 well ProxiPlate, TAF1-BD2 (0.012 uM final) in 50 mM HEPES (pH 7.5; final), 50 mM NaCl (final), 1 mM TCEP (final), 0.1 mg/mL BSA (final), and 0.069 mM Brij-35 (final) was added either in the presence of DMSO (final 0.2% DMSO) or compound dilution series in DMSO. After a 10 minute incubation at room temperature, biotin-ligand (0.04 uM final) was added. After 10 minutes incubation at room temperature, a mixture Eu-W1024 Anti-6×His antibody (Perkin Elmer AD0110) and SureLight™ Streptavidin-Allophycocyanin (SA-APC, Perkin Elmer CR130-100) were added to a final concentration of 0.2 nM antibody and 0.025 uM SA-APC, respectively. After forty minutes of equilibration at room temperature, the plates were read on an Envision instrument and IC50s calculated using a four parameter logistic model (XLFIT).

SMILES	IC50 (TAF1-BD1) [µM]	IC50 (TAF1-BD2) [µM]
CCOC(=O)c1c(C)[nH]c2c(=O)n(C)cc(C#CC(C)(C)NC(C)=O)c12 [Example 22, ethyl 4-(3-acetamido-3-methyl-but-1-ynyl)-2,6-dimethyl-7-oxo-1H-pyrrolo[2,3-c]pyridine-3-carboxylate]	0.804	0.523
Cc1ccccc1COC(=O)c1c(C)[nH]c2c(=O)n(C)cc(C#CC(O)(c3ccccc3)C(F)(F)F)c12 (centres unmarked) [Example 108, o-tolylmethyl 2,6-dimethyl-7-oxo-4-(4,4,4-trifluoro-3-hydroxy-3-phenyl-but-1-ynyl)-1H-pyrrolo[2,3-c]pyridine-3-carboxylate]	3.35	1.26
CCOC(=O)c1c(C)[nH]c2c(=O)n(C)cc(C#CC(O)(c3ccn(C)n3)C(F)(F)F)c12 (centres unmarked) [Example 42, ethyl 2,6-dimethyl-7-oxo-4-[4,4,4-trifluoro-3-hydroxy-3-(1-methylpyrazol-3-yl)but-1-ynyl]-1H-pyrrolo[2,3-c]pyridine-3-carboxylate]	0.657	0.0969
Cc1[nH]c2c(=O)n(C)cc(C#CC(C)(O)C3CC3)c2c1-c1nnc(C(C)(C)C)o1 (single isomer, unassigned) [Example 98a, 3-(5-tert-butyl-1,3,4-oxadiazol-2-yl)-4-(3-cyclopropyl-3-hydroxy-but-1-ynyl)-2,6-dimethyl-1H-pyrrolo[2,3-c]pyridin-7-one]	0.728	0.227
Cc1[nH]c2c(=O)n(C)cc(C#CC(C)(O)CO)c2c1C(=O)OCC(C)C (centres unmarked) [Example 127, isobutyl 4-(3,4-dihydroxy-3-methyl-but-1-ynyl)-2,6-dimethyl-7-oxo-1H-pyrrolo[2,3-c]pyridine-3-carboxylate]	0.727	0.0684
C=CCn1cc(C#CC(C)(C)O)c2c(C(=O)OCC)c(C)[nH]c2c1=O [Example 51, ethyl 6-allyl-4-(3-hydroxy-3-methyl-but-1-ynyl)-2-methyl-7-oxo-1H-pyrrolo[2,3-c]pyridine-3-carboxylate]	7.2	0.227
CC(=O)c1c(C)[nH]c2c(=O)n(C)cc(C#CC(C)(C)O)c12 [Example 199a, 3-acetyl-4-(3-hydroxy-3-methyl-but-1-ynyl)-2,6-dimethyl-1H-pyrrolo[2,3-c]pyridin-7-one]	1.3	0.13
CCOC(=O)c1c(C)[nH]c2c(=O)n(C)cc(C#C[C@@](C)(O)c3ncccn3)c12 [Example 6, ethyl 4-[(3R)-3-hydroxy-3-pyrimidin-2-yl-but-1-ynyl]-2,6-dimethyl-7-oxo-1H-pyrrolo[2,3-c]pyridine-3-carboxylate]	0.989	0.147
CCOC(=O)c1c[nH]c2c(=O)n(C)cc(C#CC(C)(C)O)c12 [Example 53, ethyl 4-(3-hydroxy-3-methyl-but-1-ynyl)-6-methyl-7-oxo-1H-pyrrolo[2,3-c]pyridine-3-carboxylate]	0.859	0.0952
CC(=O)c1c(C)n(C)c2c(=O)[nH]cc(C#CC(C)(C)O)c12 [Example 199b, 3-acetyl-4-(3-hydroxy-3-methyl-but-1-ynyl)-1,2-dimethyl-6H-pyrrolo[2,3-c]pyridin-7-one]	20	20

These reach a lower IC50 (TAF1-BD1). Values come first.

IC50 (TAF1-BD1) [µM]	IC50 (TAF1-BD2) [µM]	SMILES
0.407	0.0611	CCOC(=O)c1c(C)[nH]c2c(=O)n(C)cc(C#CC3(O)CCC3)c12 [Example 21, ethyl 4-[2-(1-hydroxycyclobutyl)ethynyl]-2,6-dimethyl-7-oxo-1H-pyrrolo[2,3-c]pyridine-3-carboxylate]
0.355	0.0692	CCOC(=O)c1c(C)[nH]c2c(=O)n(C)cc(C#CC(O)(c3cccc(C#N)c3)C(F)(F)F)c12 (centres unmarked) [Example 40, ethyl 4-(3-(3-cyanophenyl)-4,4,4-trifluoro-3-hydroxybut-1-yn-1-yl)-2,6-dimethyl-7-oxo-6,7-dihydro-1H-pyrrolo[2,3-c]pyridine-3-carboxylate]
0.337	0.129	CCOC(=O)c1c(C)[nH]c2c(=O)n(C)cc(C#Cc3cncn3C)c12 [Example 56, ethyl 2,6-dimethyl-4-[2-(3-methylimidazol-4-yl)ethynyl]-7-oxo-1H-pyrrolo[2,3-c]pyridine-3-carboxylate]
0.335	0.0616	Cc1nnc(-c2c(C)[nH]c3c(=O)n(C)cc(C#CC(C)(O)C4CC4)c23)o1 (centres unmarked) [Example 192, 4-(3-cyclopropyl-3-hydroxy-but-1-ynyl)-2,6-dimethyl-3-(5-methyl-1,3,4-oxadiazol-2-yl)-1H-pyrrolo[2,3-c]pyridin-7-one]
0.312	0.0804	CCOC(=O)c1c(C)[nH]c2c(=O)n(C)cc(C#CC(O)(c3cccnc3)C(F)(F)F)c12 (centres unmarked) [Example 1, ethyl 2,6-dimethyl-7-oxo-4-(4,4,4-trifluoro-3-hydroxy-3-(3-pyridyl)but-1-ynyl)-1H-pyrrolo[2,3-c]pyridine-3-carboxylate]
0.308	0.0311	Cc1[nH]c2c(=O)n(C)cc(C#CC(C)(C)O)c2c1C(=O)OC(C)(C)C [Example 133, tert-butyl 4-(3-hydroxy-3-methyl-but-1-ynyl)-2,6-dimethyl-7-oxo-1H-pyrrolo[2,3-c]pyridine-3-carboxylate]
0.287	0.0695	CCOC(=O)c1c(C)[nH]c2c(=O)n(C)cc(C#CC(O)(c3ccccc3)C(F)(F)F)c12 (centres unmarked) [Example 73, ethyl 2,6-dimethyl-7-oxo-4-(4,4,4-trifluoro-3-hydroxy-3-phenyl-but-1-ynyl)-1H-pyrrolo[2,3-c]pyridine-3-carboxylate]
0.285	0.0535	Cc1[nH]c2c(=O)n(C)cc(C#CC(C)(O)C3CC3)c2c1-c1nnco1 (centres unmarked) [Example 182, 4-(3-cyclopropyl-3-hydroxy-but-1-ynyl)-2,6-dimethyl-3-(1,3,4-oxadiazol-2-yl)-1H-pyrrolo[2,3-c]pyridin-7-one]
0.257	0.0632	CCOC(=O)c1c(C)[nH]c2c(=O)n(C)cc(C#CC3(O)CCCCC3)c12 [Example 81, ethyl 4-[2-(1-hydroxycyclohexyl)ethynyl]-2,6-dimethyl-7-oxo-1H-pyrrolo[2,3-c]pyridine-3-carboxylate]
0.248	0.0467	Cc1[nH]c2c(=O)n(C)cc(C#CC(C)(O)C3CC3)c2c1-c1nnc(C2CCOC2)o1 (centres unmarked) [Example 175, 4-(3-cyclopropyl-3-hydroxy-but-1-ynyl)-2,6-dimethyl-3-(5-tetrahydrofuran-3-yl-1,3,4-oxadiazol-2-yl)-1H-pyrrolo[2,3-c]pyridin-7-one]
0.239	0.0499	Cc1cc([C@](C)(O)C#Cc2cn(C)c(=O)c3[nH]c(C)c(-c4nnc(C5CC5)o4)c23)no1 [Example 190, 3-(5-cyclopropyl-1,3,4-oxadiazol-2-yl)-4-[(3R)-3-hydroxy-3-(5-methylisoxazol-3-yl)but-1-ynyl]-2,6-dimethyl-1H-pyrrolo[2,3-c]pyridin-7-one]
0.137	0.0292	Cc1[nH]c2c(=O)n(C)cc(C#CC(C)(O)C3CC3)c2c1-c1nnc(CC(C)C)o1 (centres unmarked) [Example 179, 4-(3-cyclopropyl-3-hydroxy-but-1-ynyl)-3-(5-isobutyl-1,3,4-oxadiazol-2-yl)-2,6-dimethyl-1H-pyrrolo[2,3-c]pyridin-7-one]
0.123	0.0401	Cc1[nH]c2c(=O)n(C)cc(C#CC(C)(O)C3CC3)c2c1C(=O)OCC(C)C (centres unmarked) [Example 126, isobutyl 4-(3-cyclopropyl-3-hydroxy-but-1-ynyl)-2,6-dimethyl-7-oxo-1H-pyrrolo[2,3-c]pyridine-3-carboxylate]
0.112	0.0502	Cc1cc([C@](C)(O)C#Cc2cn(C)c(=O)c3[nH]c(C)c(C(=O)OCC(C)C)c23)no1 [Example 158, isobutyl 4-[(3R)-3-hydroxy-3-(5-methylisoxazol-3-yl)but-1-ynyl]-2,6-dimethyl-7-oxo-1H-pyrrolo[2,3-c]pyridine-3-carboxylate]
0.0968	0.0237	Cc1[nH]c2c(=O)n(C)cc(C#CC(C)(C)O)c2c1C(=O)OCC1CCCC1 [Example 148, cyclopentylmethyl 4-(3-hydroxy-3-methyl-but-1-ynyl)-2,6-dimethyl-7-oxo-1H-pyrrolo[2,3-c]pyridine-3-carboxylate]
